{"source": "patent US20220041578A1", "about": "“ISOINDOLINE COMPOUND, AND PREPARATION METHOD, PHARMACEUTICAL COMPOSITION, AND APPLICATION OF ISOINDOLINE COMPOUND” (Shanghai Institute of Meteria Medica, Chinese Academy of …, priority 2018, published 2022)", "key": {"[1]": {"molecular_target": "T1, CRBN (Homo sapiens, UniProt Q96SW2)", "T1 construct": "lyse the blood tumor Mino cells, and centrifuged to obtain a clear cell lysate; endogenous in cells; host or cells: Mino cells (mantle cell lymphoma), lysate", "T1 sequence (Q96SW2 whole entry)": "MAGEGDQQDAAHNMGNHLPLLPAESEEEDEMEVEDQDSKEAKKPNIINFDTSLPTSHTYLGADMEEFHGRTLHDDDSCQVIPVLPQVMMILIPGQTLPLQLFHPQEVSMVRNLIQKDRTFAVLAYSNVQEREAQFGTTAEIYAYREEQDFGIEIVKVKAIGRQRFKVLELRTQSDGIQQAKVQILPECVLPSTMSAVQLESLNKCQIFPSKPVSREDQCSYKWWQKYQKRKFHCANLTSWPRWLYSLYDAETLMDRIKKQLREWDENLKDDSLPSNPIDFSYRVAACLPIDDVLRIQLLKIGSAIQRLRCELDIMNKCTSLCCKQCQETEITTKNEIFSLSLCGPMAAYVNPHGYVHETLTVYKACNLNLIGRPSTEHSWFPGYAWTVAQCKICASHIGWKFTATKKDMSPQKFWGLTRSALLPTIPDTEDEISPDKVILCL", "assay": "Verification of interaction between compound and CRBN (elution from thalidomide FG beads, Western blotting)", "assay_type": "binding", "design": "dose or concentration left out as unconfirmed", "conditions": "Mino cell lysate, 25° C., 15 minutes, Western blotting with CRBN antibody", "text": "Studies have shown that lenalidomide immunomodulators in hematological tumor cell lines regulate the activity of CRBN-ubiquitin ligase complex by binding to CRBN, selectively induce ubiquitination and degradation of transcription factors IKZF1 and IKZF3, thereby achieving the role of treating malignant hematological tumors (Science, 2014, 343, 301; Science, 2014, 343, 305; Nature, 2015, 523, 183). By using high-efficiency affinity magnetic nanoparticles “FG beads”, thalidomide analogues were pre-attached to the magnetic beads, and the thalidomide FG beads could catch CRBN protein (Leukemia, 2012, 26, 2326; Science, 2010, 327, 1345). In this experiment, NP-400 cell lysate was used to lyse the blood tumor Mino cells, and centrifuged to obtain a clear cell lysate and divided it into three samples evenly. Thalidomide FG beads were added to the three samples, and the Thalidomide FG beads and the cell lysate were combined and incubated at 4° C. for 6 hours. After the incubation was completed, separated the magnetic beads with a magnetic stand, resuspended the separation with NP-400 lysate, repeated 3 times to obtain magnetic beads removed excess cell lysate. […] The eluate was denatured by heating with SDS Loading Buffer, and the amount of CRBN in each sample was detected by Western blotting with CRBN antibody (Proteintech)."}, "[2]": {"system": "MM.1S cells", "assay": "Effect of the compound on the proliferation of MM.1S cells (MTS)", "assay_type": "cell-based", "conditions": "Homo sapiens, MM1.S, 168 h, 7 days, read-out: Cell inhibitory activity (IC50)", "summary_of_the_method": "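In 1640 medium + 10% FBS, 20,000 cells per well were treated with 5-fold compound dilutions at 0.2% DMSO for 7 days at 37° C., 5% CO2. MTS was read after 3–4 h as OD490−OD690, inhibition was calculated against DMSO and blank wells, and IC50 was fitted; three independent experiments were run.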"}, "[3]": {"system": "Mino cells", "assay": "Effect of the compound on the proliferation of Mino cells (MTS)", "assay_type": "cell-based", "conditions": "Homo sapiens, 72 h, 3 days, read-out: Inhibitory activity (IC50)", "protocol": "Mino cells were cultured with 1640 plus […] and collected. The cell concentration was diluted according to the action time of 3 days, and 90 ul cell suspension was added to each well of the 96-well cell plate to make the cell count to be 8000. 10 ul of DMSO with a final concentration of 0.2% was added to the control cell wells. The compound was diluted 5-fold with the 10 mM stock solution, and 10 ul was also added to the compound cell wells (the final concentration of DMSO was 0.2%). The cells were placed in a 37° C., […] incubator and incubated for 3 days. After preparing the reaction solution according to the MTS kit (Promega, G5430), 20 μL was added to each well, incubated in a 37° C., 5% CO2 incubator for 3-4 h. Read the 490 nm absorbance value with a microtiter plate, and used the 690 nm absorbance value as the background value and OD490-OD690 as the final initial data. The formula for calculating the inhibition rate of the compound was: inhibition rate=(OD DMSO-ODcompound)/(ODDMSO-Oblank)×100%. The compound's proliferation inhibition IC50 was fitted by Graph Pad Prism 5.0. The experiment was repeated three times, and three parallel experiments were used to calculate the average and standard deviation each time."}, "[4]": {"system": "triple negative breast cancer cells MDA-MB-231", "assay": "Proliferation of other tumor cells, MDA-MB-231 (WST-8)", "assay_type": "cell-based", "conditions": "Homo sapiens, 96 h, MDA-MB-231 cells, 4 days, read-out: Inhibitory activity on proliferation, MDA-MB-231 (IC50)", "protocol": "(§1) The human triple negative breast cancer cells MDA-MB-468 and MDA-MB-231 used in this experiment were purchased from the Shanghai Cell Bank, in which L-15 medium added with 10% fetal bovine serum (FBS) and 1% double antibody was used. At 37° C., MDA-MB-468 and MDA-MB-231 cells were cultured in an incubator without CO2. Colorectal cancer cells HCT-116 were cultured in McCOY's 5A medium with 1% double antibody and 10% fetal bovine serum (FBS); prostate cancer cells DU145 were cultured in MEM medium with 1% double antibody and 10% fetal bovine serum (FBS); prostate cancer cells PC-3 were cultured in F-12 K medium with 1% double antibody and 10% fetal bovine serum (FBS); grew at 37° C., 5% CO2.\n(§2) In the cell activity test experiment, 90 μL cell suspension with appropriate concentration was added to a 96-well cell culture plate according to the cell growth, each compound to be tested was gradient diluted with the corresponding medium, 10 μL diluted compound was added to 90 μL cells, and then incubated at 37° C. for 4 days. Cell proliferation was analyzed by WST-8, which could be reduced by lactate dehydrogenase in the cells to a yellow formazan. 10 μL of WST-8 reagent (DOJINDO) was added to the cells and reacted for more than 1 hour at 37° C., DMSO-treated cells were used as […]. The absorption value of 490 nm was read by enzyme-labeled plate, and the absorption value of 690 nm was taken as the background value, and OD490-OD690 was taken as the final original data, and the data was processed by GraphPad Prism6 software. The formula for calculating the inhibition rate of the compound was: inhibition rate=(ODDMSO−ODcompound)/(ODDMSO−Oblank)×100%. The compound's proliferation inhibition IC50 was fitted by Graph Pad Prism 5.0. The experiment was repeated three times, and three parallel experiments were used to calculate the average and standard deviation each time. The cell viability test results were shown in Table 4: A means cell viability IC50<1 μM, B means cell viability 1 μM≤IC50≤20 μM, C means cell viability IC50>20 μM, NT means not tested."}, "[5]": {"system": "prostate cancer cells DU145", "assay": "Proliferation of other tumor cells, DU145 (WST-8)", "assay_type": "cell-based", "conditions": "Homo sapiens, DU-145, 96 h, 4 days, read-out: Inhibitory activity on proliferation, DU145 (IC50)", "protocol": "as §1, §2"}, "[6]": {"system": "Colorectal cancer cells HCT-116", "assay": "Proliferation of other tumor cells, HCT-116 (WST-8)", "assay_type": "cell-based", "conditions": "Homo sapiens, 96 h, HCT-116 cells, 4 days, read-out: Inhibitory activity on proliferation, HCT-116 (IC50)", "protocol": "as §1, §2"}, "[7]": {"system": "prostate cancer cells PC-3", "assay": "Proliferation of other tumor cells, PC-3 (WST-8)", "assay_type": "cell-based", "conditions": "Homo sapiens, 96 h, PC-3 cells, 4 days, read-out: Inhibitory activity on proliferation, PC-3 (IC50)", "protocol": "as §1, §2"}, "[8]": {"system": "TNF-α", "assay": "TNF-α activity inhibition experiment in LPS-stimulated PBMC (ELISA)", "assay_type": "cell-based", "conditions": "Homo sapiens, compound 10 nM, LPS 1 ug/ml, 72 hours, read-out: Inhibition rate of TNF-a (%)", "protocol": "(§3) All operations of this experiment were carried out according to the conventional experimental process of this kind of experiment at present. Peripheral blood from healthy volunteers was collected by routine standard procedure and cultured in 1640 medium (+10% FBS) to obtain PBMC. After recovery, PBMC was centrifuged and resuspended in serum-free medium. After counting, adjusted the density to be 6.25×10^5/ml; then inoculated 160 ul to a 96-well plate, 1×10^5/well; 20 ul 10× compound and DMSO were added, and incubated for 1 hour in an incubator; then 20 ul 10 XLPS was added resulting the final concentration of 1 ug/ml and incubated in an incubator for 72 hours. Centrifuged the cell plate at 1500 rpm and aspirated 50 ul supernatant according to the ELISA operation. After operating according to the kit, a microplate reader was used to read at 450 nm. The concentration of compound was 10 nM, and DMSO was added as control group. Materials used in this experiment: 96 well plate (Corning, #3599), ELISA kit (Thermo), LPS (Sigma, USA)."}, "[9]": {"system": "IL-2", "assay": "IL-2 expression change in anti-human CD3 stimulated PBMC (ELISA)", "assay_type": "cell-based", "conditions": "compound 10 nM, anti-human CD3 10 ug/ml, 24 hours", "protocol": "as §3, with “plate, 2 holes each,” for “plate,”, “ul 10× anti-human CD3” for “ul 10 XLPS”, “of 10” for “of 1”, “for 24” for “for 72”"}, "[10]": {"system": "IFNγ", "assay": "IFNγ expression change in anti-human CD3 stimulated PBMC (ELISA)", "assay_type": "cell-based", "conditions": "compound 10 nM, anti-human CD3 10 ug/ml, 24 hours", "protocol": "as §3, with “plate, 2 holes each,” for “plate,”, “ul 10× anti-human CD3” for “ul 10 XLPS”, “of 10” for “of 1”, “for 24” for “for 72”, “USA). It was found from the test results of the following table that the compounds of the examples of the present invention could be used to regulate the expression of IFNγ.” for “USA).”"}}, "data": [{"smiles": "O=C1CCC(N2Cc3c(OCc4cn(-c5ccc(OC(F)(F)F)cc5)nn4)cccc3C2=O)C(=O)N1", "note": "(stereo not drawn) [Compound 17]", "values": [{"measurement": "Elution of CRBN from thalidomide FG beads", "setting": "[1]", "result": "can elute CRBN from the magnetic beads bound to thalidomide"}, {"measurement": "IC50", "setting": "[2]", "result": "< 150", "unit": "nM"}, {"measurement": "IC50", "setting": "[3]", "result": "< 150", "unit": "nM"}]}, {"smiles": "O=C1CCC(N2Cc3c(OCc4cn(-c5ccc(OC6CCOCC6)cc5)nn4)cccc3C2=O)C(=O)N1", "note": "(stereo not drawn) [Compound 30, 3-(1-oxo-4-((1-(4-((2H-tetrahydropyran-4-)oxy)phenyl)-1H-1,2,3-triazol-4-)methoxy)isoindolin-2-)piperidine-2,6-dione]", "values": [{"measurement": "IC50", "setting": "[4]", "result": "1 to 20", "unit": "µM"}, {"measurement": "IC50", "setting": "[5]", "result": "1 to 20", "unit": "µM"}, {"measurement": "IC50", "setting": "[6]", "result": "1 to 20", "unit": "µM"}, {"measurement": "IC50", "setting": "[2]", "result": "< 150", "unit": "nM"}, {"measurement": "IC50", "setting": "[3]", "result": "< 150", "unit": "nM"}, {"measurement": "IC50", "setting": "[7]", "result": "1 to 20", "unit": "µM"}]}, {"smiles": "O=C1CCC(N2Cc3c(OCc4cnc(-c5ccc(OC(F)(F)F)cc5)o4)cccc3C2=O)C(=O)N1", "note": "(stereo not drawn) [Compound 45, 3-(1-oxo-4-((2-(4-trifluoromethoxyphenyl)oxazol-5-)methoxy)isoindolin-2-) piperidine-2,6-dione]", "values": [{"measurement": "IC50", "setting": "[4]", "result": "> 20", "unit": "µM"}, {"measurement": "IC50", "setting": "[5]", "result": "1 to 20", "unit": "µM"}, {"measurement": "IC50", "setting": "[6]", "result": "1 to 20", "unit": "µM"}, {"measurement": "IC50", "setting": "[2]", "result": "< 150", "unit": "nM"}, {"measurement": "IC50", "setting": "[3]", "result": "< 150", "unit": "nM"}, {"measurement": "IC50", "setting": "[7]", "result": "1 to 20", "unit": "µM"}]}, {"smiles": "O=C1CCC(N2Cc3c(OCc4cn(-c5ccc(OC(F)(F)F)cc5)nn4)cccc3C2=O)C(=O)N1", "note": "(stereo not drawn) [CCC-135 (compound 17)]", "values": [{"measurement": "inhibition at 0.01 µM", "setting": "[8]", "result": "> 50", "unit": "%"}, {"measurement": "Increase multiple of IL-2 Expression", "setting": "[9]", "result": ">3"}, {"measurement": "Increase multiple of IFNγ expression", "setting": "[10]", "result": ">1.5"}]}]}
